According to patent US4025622A, “Novel sugar ureide and thioureide derivatives” (Ogura; Haruo, priority 1974, dated 1977):
Values after ≈ are worked out from the molar mass of the structure shown.

Key:
[1] = tested on: mice; assay: LDo value for mice by oral administration; type: in vivo
[2] = tested on: Salmonella typhi O-901-W; assay: Minimum inhibitory concentration, standard serial dilution method; type: cell-based; details: 37° C.; for MIC: Salmonella enterica, TYPHI, 24 h, inoculum size 3.5×10^5, Brain heart infusion broth; for MIC Salmonella typhi O-901-W: inoculum size 3.5×10^5, Brain heart infusion broth, 24 hours
Protocol: (§1) The minimum inhibitory concentration (mcg/ml) of a variety of the sugar ureide and thioureide derivatives according to this invention against various bacteria was determined in accordance with a standard serial dilution method using as medium Brain heart infusion broth (Difco) at 37° C. the determination being made after 24 hours incubation. The results are shown in Table 1 together with the results of test for ampicillin as reference.

[3] = tested on: Pseudomonas aeruginosa IAM-1007; assay: as above; type: cell-based; details: 37° C.; for MIC: Pseudomonas aeruginosa, IAM1007, 24 h, inoculum size 1.3×10^5, Brain heart infusion broth
Protocol: as §1

[4] = tested on: Staphylococcus aureus 209 P; assay: as above; type: cell-based; details: inoculum size 3.8×10^5, Brain heart infusion broth, 37° C., 24 hours; for MIC: Staphylococcus aureus, 209P
Protocol: as §1

[5] = tested on: Escherichia coli IAM-1264; assay: as above; type: cell-based; details: 37° C.; for MIC: Escherichia coli, IAM1264, 24 h, inoculum size 1.9×10^5, Brain heart infusion broth
Protocol: as §1

[6] = tested on: Proteus vulgaris OX 19; assay: as above; type: cell-based; details: 37° C.; for MIC: Proteus vulgaris, OX19, 24 h, inoculum size 1.2×10^5, Brain heart infusion broth; for MIC Proteus vulgaris OX 19: inoculum size 1.2×10^5, Brain heart infusion broth, 24 hours
Protocol: as §1

[7] = tested on: Klebsiella pneumoniae; assay: as above; type: cell-based; details: 37° C.; for MIC: Klebsiella pneumoniae, 24 h, inoculum size 1.3×10^5, Brain heart infusion broth
Protocol: as §1

[8] = tested on: Staphylococcus aureus No. 26; assay: as above; type: cell-based; details: 37° C.; for MIC: Staphylococcus aureus, NO.26, 24 h, inoculum size 2.3×10^5, Brain heart infusion broth
Protocol: as §1

[9] = inoculum size 1.3×10^5, Brain heart infusion broth, 24 hours

## CC(=O)OC[C@@H](OC(C)=O)[C@@H](OC(C)=O)[C@H](OC(C)=O)[C@@H](OC(C)=O)C(=O)NC(=S)N[C@@H](C(=O)N[C@@H]1C(=O)N2C(C(=O)O)=C(C)CS[C@H]12)c1ccccc1 [Example 28, 7-[D-α-(2,3,4,5,6-penta-O-acetyl-D-gluconylthioureido)-phenylacetamido] -3-methyl-3-cephem-4-carboxylic acid]
[1]
  LDo: > 1000 mg/kg
[2]
  MIC: > 100 µg/mL
[3]
  MIC: > 100 µg/mL
[4]
  MIC: 12.5 µg/mL (≈ 15.7 µM)
[5]
  MIC: > 100 µg/mL
[6]
  MIC: 100 µg/mL (≈ 126 µM)
[7]
  MIC: > 100 µg/mL

## CC1(C)S[C@@H]2[C@H](NC(=O)[C@H](N)c3ccccc3)C(=O)N2[C@H]1C(=O)O [Ampicillin, α-aminobenzylpenicillin, reference compound]
[1]
  LDo: > 1000 mg/kg
[2]
  MIC: 0.39 µg/mL (≈ 1.12 µM)
[8]
  MIC: > 100 µg/mL
[3]
  MIC: > 100 µg/mL
[4]
  MIC: 0.1 µg/mL (≈ 0.286 µM)
[5]
  MIC: 3.12 µg/mL (≈ 8.93 µM)
[6]
  MIC: 100 µg/mL (≈ 286 µM)
[7]
  MIC: 1.56 µg/mL (≈ 4.46 µM)

## CC(=O)O[C@H]1[C@H](OC(C)=O)[C@@H](NC(=S)N[C@@H](C(=O)N[C@@H]2C(=O)N3[C@@H]2SC(C)(C)[C@@H]3C(=O)O)c2ccccc2)OC[C@H]1OC(C)=O [Example 13, α-(2,3,4-Tri-O-acetyl-α-D-arabinopyranosylthioureido) benzylpenicillin]
[2]
  MIC Salmonella typhi O-901-W: > 100 µg/mL
[8]; inoculum size 2.3×10^5, Brain heart infusion broth, 24 hours
  MIC Staphylococcus aureus No. 26: > 100 µg/mL
[3]; [9]
  MIC Pseudomonas aeruginosa IAM-1007: > 100 µg/mL
[4]
  MIC Staphylococcus aureus 209 P: 3.12 µg/mL (≈ 4.68 µM)
[5]; inoculum size 1.9×10^5, Brain heart infusion broth, 24 hours
  MIC Escherichia coli IAM-1264: > 100 µg/mL
[6]
  MIC Proteus vulgaris OX 19: 25 µg/mL (≈ 37.5 µM)
[7]; [9]
  MIC Klebsiella pneumoniae: > 100 µg/mL

## CC(=O)OC[C@@H](OC(C)=O)[C@@H](OC(C)=O)[C@H](OC(C)=O)[C@@H](OC(C)=O)C(=O)NC(=S)N[C@@H](C(=O)N[C@@H]1C(=O)N2[C@@H]1SC(C)(C)[C@@H]2C(=O)O)c1ccccc1 [Example 17, α-(2,3,4,5,6-Penta-O-acetyl-D-gluconyl-thioureido) benzylpenicillin]
[1]
  LDo: > 1000 mg/kg
[2]
  MIC: 50 µg/mL (≈ 62.7 µM)
[8]
  MIC: > 100 µg/mL
[3]
  MIC: > 100 µg/mL
[4]
  MIC: 0.78 µg/mL (≈ 0.979 µM)
[5]
  MIC: > 100 µg/mL
[6]
  MIC: 1.56 µg/mL (≈ 1.96 µM)
[7]
  MIC: > 100 µg/mL

## CC(=O)O[C@H]1[C@H](OC(C)=O)[C@@H](NC(=S)N[C@@H](C(=O)N[C@@H]2C(=O)N3[C@@H]2SC(C)(C)[C@@H]3C(=O)O)c2ccccc2)OC[C@H]1OC(C)=O [Example 10, Triethylammonium α-(2,3,4,-tri-O-acetyl-α-D-arabinopyranosylthioureido) benzylpenicillinate]
[1]
  LDo: > 1000 mg/kg
[2]
  MIC Salmonella typhi O-901-W: 6.25 µg/mL
[8]
  MIC: 100 µg/mL
[3]
  MIC: 200 µg/mL
[4]
  MIC: 3.12 µg/mL
[5]
  MIC: 50 µg/mL
[6]
  MIC Proteus vulgaris OX 19: > 100 µg/mL
[7]
  MIC: 50 µg/mL
